What all share (test): Post-emergence efficacy, Method A
What all share (type): in vivo

For one test, the system named is Eleusine indica (ELEIN). Conditions: Eleusine indica, post-emergence, 312 h; Application rate 500 g/Ha; evaluated after 13 days; 100=total damage to plant, 0=no damage to plant; read-out: Control of weed species after post-emergence application, ELEIN. In outline:
(§1)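 Post-emergence spray on 14-day-old glasshouse plants (24/16 °C day/night, 14 h photoperiod, 65% humidity). Test material was taken up in acetone and IF50 emulsifier mix, then diluted with sodium lauryl ether sulphate (0.25% or 1%) plus 1% ammonium sulphate. Damage was rated 13 days later, 100 = total.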

The test system of the next test is Setaria faberi (SETFA). Conditions: Setaria faberi, post-emergence, 312 h; Application rate 500 g/Ha; evaluated after 13 days; 100=total damage to plant, 0=no damage to plant; read-out: Control of weed species after post-emergence application, SETFA. In outline:
as §1

For the next test, the system named is Lolium perenne (LOLPE). As to conditions: Lolium perenne, post-emergence, 312 h, Application rate 500 g/Ha; evaluated after 13 days; 100=total damage to plant, 0=no damage to plant; read-out: Control of weed species after post-emergence application, LOLPE. In outline: as §1
The subject of test [1] is Ipomoea hederacea (IPOHE). As to conditions: Ipomoea hederacea, post-emergence, 312 h, Application rate 500 g/Ha; evaluated after 13 days; 100=total damage to plant, 0=no damage to plant; read-out: Control of weed species after post-emergence application, IPOHE. An outline of the steps:
as §1

The test system of test [2] is Chenopodium album (CHEAL). As to conditions: Chenopodium album, post-emergence, 312 h; Application rate 500 g/Ha; evaluated after 13 days; 100=total damage to plant, 0=no damage to plant; read-out: Control of weed species after post-emergence application, CHEAL. An outline of the steps: as §1
Test [3] deals with Amaranthus palmeri (AMAPA). As to conditions: Amaranthus palmeri, post-emergence, 312 h; Application rate 500 g/Ha; evaluated after 13 days; 100=total damage to plant, 0=no damage to plant; read-out: Control of weed species after post-emergence application, AMAPA. An outline of the steps:
as §1

Test [4] concerns Digitaria sanguinalis (DIGSA). As to conditions: Digitaria sanguinalis, post-emergence, 312 h; Application rate 500 g/Ha; evaluated after 13 days; 100=total damage to plant, 0=no damage to plant; read-out: Control of weed species after post-emergence application, DIGSA. In outline: as §1
Test [5] concerns Echinochloa crus-galli (ECHCG). Conditions: Echinochloa crus-galli, post-emergence, 312 h; Application rate 500 g/Ha; evaluated after 13 days; 100=total damage to plant, 0=no damage to plant; read-out: Control of weed species after post-emergence application, ECHCG. In outline:
as §1

Test [6] deals with Euphorbia heterophylla (EPHHL). As to conditions: Euphorbia heterophylla, post-emergence, 312 h; Application rate 500 g/Ha; evaluated after 13 days; 100=total damage to plant, 0=no damage to plant; read-out: Control of weed species after post-emergence application, EPHHL. In outline: as §1

Data on 15 molecules can be found in patent publication US20220125051A1, “PRE-HARVEST DESICCATION METHOD” (SYNGENTA CROP PROTECTION AG, priority 2019, published 2022).

Consider `CS(=O)(=O)c1cnc(-c2cc[n+](CCC(=O)[O-])nc2)nc1` [Compound A46], for which the pest or weed control at 500 g/ha stood at 50% in the test on Eleusine indica (ELEIN); 50% in the test on Setaria faberi (SETFA); 20% in the test on Lolium perenne (LOLPE); 10% in [1]; 10% in [2]; 70% in test [3]. The results for the pest or weed control at 500 g/ha in test [4], in test [5] and in [6] were 50%, 30% and 60%, respectively.

As for `CC(=O)c1ccnc(-c2cc[n+](CCS(=O)(=O)[O-])nc2)n1` [Compound A49], the pest or weed control at 500 g/ha amounted to 100% with Eleusine indica (ELEIN); 100% in the test on Setaria faberi (SETFA); 50% with Lolium perenne (LOLPE); 60% in test [1]; 80% in test [2]; 100% in [3]. Besides, the pest or weed control at 500 g/ha in [4] amounted to 90%; in test [5] it was 60%; in test [6], 70%.

On to `O=S(=O)([O-])CC[n+]1ccc(-c2nccc(C3CC3)n2)cn1` [Compound A50], for which the pest or weed control at 500 g/ha in the test on Eleusine indica (ELEIN) was determined as 90%; in the test on Setaria faberi (SETFA), 60%; in the test with Lolium perenne (LOLPE), 60%; in test [1], 50%; in test [2], 20%; in test [3], 100%. The figures for the pest or weed control at 500 g/ha in test [4], in test [5] and in test [6] were 50%, 40% and 90%, respectively.

Turning to `COC(=O)CC[n+]1ccc(-c2ncccn2)cn1` [Compound A54, methyl 3-(4-pyrimidin-2-ylpyridazin-1-ium-1-yl)propanoate 2,2,2-trifluoroacetate], the pest or weed control at 500 g/ha in the test with Eleusine indica (ELEIN) was 100%; in the test on Setaria faberi (SETFA), 100%; in the test with Lolium perenne (LOLPE), 70%; in [1], 10%; in [2] it was 90%; in test [3], 90%. In addition, the pest or weed control at 500 g/ha in test [4] stood at 100%; in [5] it was 90%; in test [6], 70%.

On to `CC(=O)c1cnc(-c2cc[n+](CCC(=O)[O-])nc2)nc1` [Compound A58], for which the pest or weed control at 500 g/ha with Eleusine indica (ELEIN) turned out to be 80%; in the test on Setaria faberi (SETFA), 90%; with Lolium perenne (LOLPE), 50%; in test [1] it was 10%; in test [2] it was 80%; in [3] it was 100%. In addition, the pest or weed control at 500 g/ha stood at 90% in test [4], 60% in [5] and 60% in test [6].

For `CNC(=O)c1ccnc(-c2cc[n+](CCC(=O)[O-])nc2)n1` [Compound A59], the pest or weed control at 500 g/ha with Eleusine indica (ELEIN) came to 90%; with Setaria faberi (SETFA), 100%; in the test on Lolium perenne (LOLPE) it was 70%; in test [1], 80%; in test [2], 90%; in [3], 90%. Further, the pest or weed control at 500 g/ha came out at 100% in test [4], 80% in [5] and 100% in test [6].

With `Cc1cccc(-c2cc[n+](CCC(=O)[O-])nc2)n1` [Compound A63], the pest or weed control at 500 g/ha was found to be 50% in the test with Eleusine indica (ELEIN); 40% with Setaria faberi (SETFA); 20% with Lolium perenne (LOLPE); 20% in test [1]; 30% in [2]; 40% in [3]. In addition, the pest or weed control at 500 g/ha came out at 30% in test [4], 40% in test [5] and 30% in test [6].

Regarding `O=S(=O)([O-])CC[n+]1ccc(-c2ccccn2)cn1` [Compound A64], the pest or weed control at 500 g/ha in the test with Eleusine indica (ELEIN) was determined as 100%; with Setaria faberi (SETFA), 90%; with Lolium perenne (LOLPE), 80%; in [1], 20%; in test [2], 90%; in test [3] it was 90%. In addition, the figures for the pest or weed control at 500 g/ha in test [4], in test [5] and in test [6] were 80%, 60% and 100%, respectively.

For the molecule `Cc1cccnc1-c1cc[n+](CCC(=O)[O-])nc1` [Compound A65], the pest or weed control at 500 g/ha with Eleusine indica (ELEIN) turned out to be 40%; with Setaria faberi (SETFA), 40%; with Lolium perenne (LOLPE), 10%; in test [1], 10%; in test [2] it was 10%; in test [3] it was 40%. Further, the pest or weed control at 500 g/ha in [4] was determined as 30%; in [5], 30%; in test [6], 20%.

`Cc1cccnc1-c1cc[n+](CCS(=O)(=O)[O-])nc1` [Compound A66]: the pest or weed control at 500 g/ha in the test with Eleusine indica (ELEIN) was 40%; with Setaria faberi (SETFA) it was 60%; in the test on Lolium perenne (LOLPE), 50%; in [1] it was 40%; in test [2] it was 20%; in test [3], 40%. For the same molecule, the pest or weed control at 500 g/ha in test [4] was 30%; in test [5], 50%; in test [6], 50%.

As for `O=C([O-])CC[n+]1ccc(-c2ncccc2F)cn1` [Compound A67], the pest or weed control at 500 g/ha in the test on Eleusine indica (ELEIN) was found to be 70%; in the test with Setaria faberi (SETFA) it was 70%; in the test on Lolium perenne (LOLPE) it was 40%; in [1], 20%; in test [2], 50%; in test [3] it was 60%. The pest or weed control at 500 g/ha in [4] amounted to 60%; in test [5] it was 80%; in test [6], 80%.

Regarding `O=S(=O)([O-])CC[n+]1ccc(-c2ncccc2F)cn1` [Compound A68], the pest or weed control at 500 g/ha is 70% in the test on Eleusine indica (ELEIN); 60% in the test on Setaria faberi (SETFA); 60% in the test on Lolium perenne (LOLPE); 50% in [1]; 70% in test [2]; 60% in test [3]. Also, the values for the pest or weed control at 500 g/ha in test [4], in [5] and in [6] were 40%, 70% and 100%, respectively.

On to `O=S(=O)([O-])CC[n+]1ccc(-c2ccc(Cl)cn2)cn1` [Compound A69], for which the pest or weed control at 500 g/ha was found to be 60% with Eleusine indica (ELEIN); 40% with Setaria faberi (SETFA); 50% in the test with Lolium perenne (LOLPE); 40% in [1]; 60% in test [2]; 100% in test [3]. In addition, the pest or weed control at 500 g/ha was found to be 50% in test [4], 40% in [5] and 50% in test [6].

`O=S(=O)([O-])CC[n+]1ccc(-c2ncc(F)cc2F)cn1` [Compound A70]: the pest or weed control at 500 g/ha worked out at 20% with Eleusine indica (ELEIN); 30% in the test on Setaria faberi (SETFA); 20% in the test with Lolium perenne (LOLPE); 20% in test [1]; 70% in [2]; 90% in test [3]. Besides, the pest or weed control at 500 g/ha amounted to 30% in test [4], 30% in test [5] and 50% in test [6].

As for `O=C([O-])CC[n+]1ccc(-c2ccc(F)cn2)cn1` [Compound A71], the pest or weed control at 500 g/ha came to 30% in the test on Eleusine indica (ELEIN); 30% in the test on Setaria faberi (SETFA); 10% in the test on Lolium perenne (LOLPE); 40% in test [1]; 60% in [2]; 100% in test [3]. The pest or weed control at 500 g/ha in test [4] is 30%; in [5], 30%; in test [6], 40%.
